The subject of experiment [1] is E. faecal 201. Briefly: minimum inhibitory concentration (MIC) against E. faecal 201. In kind it is cell-based, E. faecalis. An excerpt:
(§1) In embodiments, the antibacterials of this invention may have useful activity against a variety of organisms. The in vitro activity of compounds of this invention may be assessed by standard testing procedures such as the determination of minimum inhibitory concentration (MIC) by agar dilution.
(§2) Compound A was broken down into smaller structural components and each fraction tested to understand the impact of certain components on the antibacterial properties of the compounds. Based on the understanding of compound A, the compounds (compounds 1 and 2) shown below, were tested further. […] A minimum inhibitory concentration is the lowest concentration of an antimicrobial that will inhibit the visible growth of a microorganism after overnight incubation.
(§3) In accordance with embodiments of the present invention, a variety of compounds have been prepared and tested, as indicated, in part, by the description above. The tables below provide minimum inhibitory concentration data for the identified compounds tested against various bacterial strains.
(§4) Table 1 lists the active compounds and the activity of those compounds for a limited quantity of bacteria. Blank spaces indicate low or no activity.

Experiment [2] has as its system E. faecalis 29212. Briefly: minimum inhibitory concentration (MIC) against E. faecalis 29212. In kind it is cell-based. Also on record: minimum inhibitory concentration, E. faecalis 29212: unit not given here.
Excerpt: as §1, §2, §3, §4

The subject of experiment [3] is several strains of Staphylococcus aureus. The experiment is described as follows: activity (minimum inhibitory concentration testing) against several strains of Staphylococcus aureus. In kind it is cell-based. The following applies: FIG. 1, result in words. On the procedure:
as §2

Experiment [4] relates to S. aureus ATCC 29213. The experiment is described as follows: minimum inhibitory concentration (MIC) against S. aureus ATCC 29213. In kind it is cell-based, Staphylococcus aureus.
Excerpt: as §1, §2, §3, §4

Experiment [5] concerns S. aureus NRS100 (COL). The experiment is described as follows: minimum inhibitory concentration (MIC) against S. aureus NRS100 (COL). In kind it is cell-based, Staphylococcus aureus.
Excerpt: as §1, §2, §3

For experiment [6], the system named is E. faecalis 99. The experiment is described as follows: minimum inhibitory concentration (MIC) against E. faecalis 99. In kind it is cell-based.
Excerpt: as §1, §2, §3, §4

In experiment [7] the test system is E. faecium 119-39A. Briefly: minimum inhibitory concentration (MIC) against E. faecium 119-39A. In kind it is cell-based.
Excerpt: as §1, §2, §3

The subject of experiment [8] is S. aureus VAN1. Briefly: minimum inhibitory concentration (MIC) against S. aureus VAN1. In kind it is cell-based, Staphylococcus aureus.
Excerpt: as §1, §2, §3

Experiment [9] concerns E. faecium 106. The experiment is described as follows: minimum inhibitory concentration (MIC) against E. faecium 106. In kind it is cell-based.
Excerpt: as §1, §2, §3

Experiment [10] deals with S. aureus VAN2. Briefly: minimum inhibitory concentration (MIC) against S. aureus VAN2. In kind it is cell-based, Staphylococcus aureus.
Excerpt: as §1, §2, §3

The subject of experiment [11] is strains of Entercoccus. The experiment is described as follows: activity (minimum inhibitory concentration testing) against strains of Entercoccus. In kind it is cell-based. The following applies: result in words; for activity as measured by minimum inhibitory concentration testing against several strains of Entercoccus: FIG. 1. On the procedure:
(§5) In an embodiment, an initial antibacterial compound was provided and tested. Such compound is identified below as compound A. Compound A (below) is an inhibitor of gram positive bacteria.
as §2

For experiment [12], the system named is gram positive bacteria. Briefly: inhibition of gram positive bacteria. Particulars: result in words. In kind it is cell-based.
Excerpt: as §5

For the molecule `c1ccc(COc2ccc(-c3nc(-c4ccc(Oc5ccncc5)cc4)no3)cc2)cc1` [Compound 51, 4-(4-(5-(4-(benzyloxy)phenyl)-1,2,4-oxadiazol-3-yl)phenoxy)pyridine], in experiment [1], the “minimum inhibitory concentration, E. faecal 201” value is 64.
For the molecule `O=[N+]([O-])c1ccc(-c2nc(-c3ccc(Oc4ccc(C(F)(F)F)cc4)cc3)no2)cc1` [Compound 15], in experiment [1], the “minimum inhibitory concentration, E. faecal 201” value was determined as 128. In experiment [2], the “minimum inhibitory concentration, E. faecalis 29212” value came to 8.
Regarding `Oc1ccc(-c2nc(-c3ccc(Oc4ccc(C(F)(F)F)cc4)cc3)no2)cc1` [Compound 1, 4-(3-(4-(4-(trifluoromethyl)phenoxy)phenyl)-1,2,4-oxadiazol-5-yl)phenol], in experiment [1], the “minimum inhibitory concentration, E. faecal 201” value is reported as 2 and the “minimum inhibitory concentration, E. faecal 201 BH” value was found to be 16. The “activity as measured by minimum inhibitory concentration testing against several strains of Staphylococcus aureus” value in [3] is given as “good activity”. The “minimum inhibitory concentration, S. aureus ATCC 29213” value in [4] is reported as 2. For the same molecule, in [5], the “minimum inhibitory concentration, S. aureus NRS100 (COL)” value was determined as 2. Moreover, in experiment [2], the “minimum inhibitory concentration, E. faecalis 29212” value was 2 and the “minimum inhibitory concentration, E. faecalis 29212 BH” value came to 16. In [6], the “minimum inhibitory concentration, E. faecal 99 BH” value came out at 8 and the “minimum inhibitory concentration, E. faecalis 99” value was found to be 2. In [7], the “minimum inhibitory concentration, E. faecium 119-39A” value amounted to 2. For the same molecule, the “minimum inhibitory concentration, E. faecium 119-39A BH” value in experiment [7] (E. faecium 119-39A BH) stood at 8. The “minimum inhibitory concentration, S. aureus VAN1” value in experiment [8] was determined as 2. Moreover, the “minimum inhibitory concentration, E. faecium 106” value in experiment [9] came to 2. The “minimum inhibitory concentration, E. faecium 106 BH” value in experiment [9] (E. faecium 106 BH) is 4. In [10], the “minimum inhibitory concentration, S. aureus VAN2” value was determined as 2. Further, in experiment [11], the “activity as measured by minimum inhibitory concentration testing against several strains of Entercoccus” value is reported as “good activity”.
For the molecule `c1ccc(COc2ccc(-c3nc(-c4ccc(Oc5cnccn5)cc4)no3)cc2)cc1` [Compound 40, 2-(4-(5-(4-(benzyloxy)phenyl)-1,2,4-oxadiazol-3-yl)phenoxy)pyrazine], the “minimum inhibitory concentration, E. faecal 201” value in experiment [1] came out at 64.
In the case of `Oc1ccc(-c2nc(-c3ccc(Oc4ccccc4)cc3)no2)cc1` [Compound 2, 4-(3-(4-phenoxyphenyl)-1,2,4-oxadiazol-5-yl)phenol], the “minimum inhibitory concentration, E. faecal 201” value in [1] is given as 4. For the same molecule, the “activity as measured by minimum inhibitory concentration testing against several strains of Staphylococcus aureus” value in experiment [3] is “good activity”. Also, the “minimum inhibitory concentration, S. aureus ATCC 29213” value in experiment [4] was determined as 2. The “minimum inhibitory concentration, S. aureus NRS100 (COL)” value in experiment [5] is on record as 2. In experiment [2], the “minimum inhibitory concentration, E. faecalis 29212” value was 4. In addition, in experiment [6], the “minimum inhibitory concentration, E. faecalis 99” value amounted to 4. The “minimum inhibitory concentration, E. faecium 119-39A” value in experiment [7] stood at 4. In addition, the “minimum inhibitory concentration, S. aureus VAN1” value in experiment [8] is on record as 2. In addition, in experiment [9], the “minimum inhibitory concentration, E. faecium 106” value was 4. For the same molecule, in experiment [10], the “minimum inhibitory concentration, S. aureus VAN2” value was found to be 2. For the same molecule, the “activity as measured by minimum inhibitory concentration testing against several strains of Entercoccus” value in experiment [11] is reported as “good activity”.
As for `COc1ccc(/C(N)=N/OC(=O)c2ccc(F)cc2)cc1` [Compound 25, 4-fluorobenzoyl-O-4-methoxybenzamidoxime], the “minimum inhibitory concentration, E. faecal 201” value in experiment [1] came to 256. The “minimum inhibitory concentration, E. faecalis 29212” value in experiment [2] is recorded as 256.
Consider `Oc1ccc(-c2nc(-c3ccc(Oc4ccccn4)cc3)no2)cc1` [Compound 44, 4-(3-(4-(pyridin-2-yloxy)phenyl)-1,2,4-oxadiazol-5-yl)phenol], for which the “minimum inhibitory concentration, E. faecal 201” value in [1] is 32.
Same read-out and setting: the figure for `Oc1ccc(-c2nc(-c3ccc(Oc4ccncc4)cc3)no2)cc1` [Compound 52, 4-(3-(4-(pyridin-4-yloxy)phenyl)-1,2,4-oxadiazol-5-yl)phenol] is 32.
Consider `N/C(=N\OC(=O)c1ccc(F)cc1)c1ccc(Oc2ccccc2)cc1` [Compound 29, (Z)-4-(phenoxy)-O-(4-fluorobenzoyl)benzamidoxime], for which the “minimum inhibitory concentration, E. faecal 201” value in experiment [1] was found to be 128. Moreover, the “minimum inhibitory concentration, E. faecalis 29212” value in experiment [2] stood at 64.
On to `COc1ccc(-c2noc(-c3ccc(O)cc3)n2)cc1` [Compound 28, 4-(3-(4-methoxyphenyl)-1,2,4-oxadiazol-5-yl)phenol], for which the “minimum inhibitory concentration, E. faecal 201” value in experiment [1] stood at 64. The “minimum inhibitory concentration, S. aureus ATCC 29213” value in [4] is given as 32.
Take `Fc1ccc(-c2nc(-c3ccccc3)no2)cc1` [Compound 19, 5-(4-fluorophenyl)-3-phenyl-1,2,4-oxadiazole]: the “minimum inhibitory concentration, E. faecal 201” value in [1] is recorded as 128. For the same molecule, in [2], the “minimum inhibitory concentration, E. faecalis 29212” value is 64.
Turning to `c1ccc(COc2ccc(-c3nc(-c4ccc(Oc5cccnc5)cc4)no3)cc2)cc1` [Compound 47, 3-(4-(5-(4-(benzyloxy)phenyl)-1,2,4-oxadiazol-3-yl)phenoxy)pyridine], the “minimum inhibitory concentration, E. faecal 201” value in experiment [1] amounted to 32.
With `COc1ccc(-c2noc(-c3ccc(F)cc3)n2)cc1` [Compound 26, 5-(4-fluorophenyl)-3-(4-methoxyphenyl)-1,2,4-oxadiazole], the “minimum inhibitory concentration, E. faecal 201” value in experiment [1] was found to be 128. Besides, in experiment [2], the “minimum inhibitory concentration, E. faecalis 29212” value is reported as 64.
The matching figures for `N/C(=N\OC(=O)c1ccc([N+](=O)[O-])cc1)c1ccc(Oc2ccc(C(F)(F)F)cc2)cc1` [Compound 14, (Z)-4-(4-(trifluoromethyl)phenoxy)-O-(4-nitrobenzoyl)benzamidoxime]: 32 and 128.
Regarding `CC(=O)O/N=C(\N)c1ccc(Oc2ccc(C(F)(F)F)cc2)cc1` [Compound 7], the “minimum inhibitory concentration, E. faecal 201” value in experiment [1] was determined as 128. For the same molecule, the “minimum inhibitory concentration, E. faecalis 29212” value in [2] is 32. For the same molecule, in experiment [6], the “minimum inhibitory concentration, E. faecal 99 BH” value amounted to 512.
`COc1ccc(-c2noc(-c3ccc(OCc4ccccc4)cc3)n2)cc1` [Compound 27, 5-(4-(benzyloxy)phenyl)-3-(4-methoxyphenyl)-1,2,4-oxadiazole]: the “minimum inhibitory concentration, E. faecal 201” value in [1] is 256.
The same measure, in the same setting: for `c1ccc(COc2ccc(-c3nc(-c4ccc(Oc5ccccn5)cc4)no3)cc2)cc1` [Compound 43, 2-(4-(5-(4-(benzyloxy)phenyl)-1,2,4-oxadiazol-3-yl)phenoxy)pyridine] the value was 64.
On to `Oc1ccc(Oc2ccc(-c3noc(-c4ccc(F)cc4)n3)cc2)cc1` [Compound 36, 4-(4-(5-(4-fluorophenyl)-1,2,4-oxadiazol-3-yl)phenoxy)phenol], for which, in [1], the “minimum inhibitory concentration, E. faecal 201” value turned out to be 32. Further, the “minimum inhibitory concentration, E. faecalis 29212” value in [2] was 64.
Regarding `Fc1ccc(-c2nc(-c3ccc(Oc4ccc(C(F)(F)F)cc4)cc3)no2)cc1` [Compound A, 5-(4-fluorophenyl)-3-(4-(4-(trifluoromethyl)phenoxy)phenyl)-1,2,4-oxadiazole], the “minimum inhibitory concentration, E. faecal 201” value in experiment [1] came to 128. Further, the “minimum inhibitory concentration, E. faecalis 29212” value in experiment [2] was 125. In [12], the “inhibition of gram positive bacteria” value was “inhibitor”. The “activity against some strains of Entercoccus” value in experiment [11] (some strains of Entercoccus) was “shows activity”.
For `Oc1ccc(-c2nc(-c3ccc(Oc4cccnc4)cc3)no2)cc1` [Compound 48, 4-(3-(4-(pyridin-3-yloxy)phenyl)-1,2,4-oxadiazol-5-yl)phenol], the “minimum inhibitory concentration, E. faecal 201” value in experiment [1] was 32.
As to `O=P(O)(O)Oc1ccc(Oc2ccc(-c3noc(-c4ccc(F)cc4)n3)cc2)cc1` [Compound 37, 4-(4-(5-(4-fluorophenyl)-1,2,4-oxadiazol-3-yl)phenoxy)phenyl dihydrogen phosphate], in [1], the “minimum inhibitory concentration, E. faecal 201” value is listed as 32 and the “minimum inhibitory concentration, E. faecal 201 BH” value is recorded as 500. Further, in experiment [2], the “minimum inhibitory concentration, E. faecalis 29212” value was found to be 500 and the “minimum inhibitory concentration, E. faecalis 29212 BH” value came out at 128. Also, the “minimum inhibitory concentration, E. faecal 99 BH” value in experiment [6] is recorded as 500.

The values are drawn from patent US9045442B2, “Antibacterial compounds and methods of using same” (University of Notre Dame du Lac, priority 2007, dated 2015).
